Experimental data published in publication PMC8482806, “A Novel Blood-Brain Barrier-Permeable Chemotherapeutic Agent for the Treatment of Glioblastoma” (Cureus, 2021).

Tests used:
[1] = [14C]-QBS10072S distribution by quantitative whole-body autoradiography in mice with intracranial LN229 tumors; format: in vivo, mouse; conditions: 5 mg/kg IV
Procedure: Athymic mice with intracranial implanted LN229 cells received a single IV dose of 5 mg/kg and 200 μCi/kg [14C]-QBS10072S into the tail vein using the formulation described above. Animals (one per time point) were sacrificed one, eight, and 24 hours post-dose, and frozen in a hexane/solid carbon dioxide bath for at least 10 minutes. The carcasses were processed as described for quantitative whole-body autoradiography. Briefly, sagittal sections (~ 40 μm thick) were cut using a microtome, mounted, and exposed to a [14C]-sensitive phosphor imaging plate for four days. The images were scanned and quantitated by image densitometry using MCID image analysis software. The concentrations of radioactivity were expressed as the μg equivalents of test article per gram sample (μg equiv/g). The upper and lower limits of quantification were 550 and 0.008 μg equiv/g, respectively (QPS, Newark, DE).

[2] = molecular target: T1, hLAT2 (Homo sapiens, UniProt Q9UHI5); assay: Substrate transport inhibition, [3H]-leucine uptake in LLC-PK1 cells expressing hLAT2; format: cell-based; conditions: [3H]-leucine, LLC-PK1 LAT2-expressing cells, 15 minutes at room temperature; read-out: IC50, inhibition of substrate transport (LAT2)
T1 construct: host or cells: LLC-PK1 (tetracycline-inducible, Invitrogen Gateway pT-REx System)
T1 sequence (Q9UHI5 1-535): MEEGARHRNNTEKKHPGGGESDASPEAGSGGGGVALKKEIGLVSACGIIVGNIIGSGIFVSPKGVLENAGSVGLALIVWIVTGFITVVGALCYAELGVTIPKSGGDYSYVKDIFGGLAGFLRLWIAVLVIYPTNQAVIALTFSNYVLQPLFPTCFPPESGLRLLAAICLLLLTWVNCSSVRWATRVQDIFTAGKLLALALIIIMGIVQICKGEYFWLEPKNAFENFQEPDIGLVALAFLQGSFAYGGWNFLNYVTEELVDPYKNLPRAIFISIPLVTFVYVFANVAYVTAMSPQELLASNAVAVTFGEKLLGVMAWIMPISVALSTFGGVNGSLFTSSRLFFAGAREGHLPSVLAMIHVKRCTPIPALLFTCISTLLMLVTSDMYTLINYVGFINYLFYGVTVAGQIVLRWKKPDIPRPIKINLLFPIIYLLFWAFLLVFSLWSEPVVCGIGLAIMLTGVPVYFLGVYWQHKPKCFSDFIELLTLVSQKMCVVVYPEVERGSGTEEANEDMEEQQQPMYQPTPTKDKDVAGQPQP
T1 sequence (P08195 1-529 partner): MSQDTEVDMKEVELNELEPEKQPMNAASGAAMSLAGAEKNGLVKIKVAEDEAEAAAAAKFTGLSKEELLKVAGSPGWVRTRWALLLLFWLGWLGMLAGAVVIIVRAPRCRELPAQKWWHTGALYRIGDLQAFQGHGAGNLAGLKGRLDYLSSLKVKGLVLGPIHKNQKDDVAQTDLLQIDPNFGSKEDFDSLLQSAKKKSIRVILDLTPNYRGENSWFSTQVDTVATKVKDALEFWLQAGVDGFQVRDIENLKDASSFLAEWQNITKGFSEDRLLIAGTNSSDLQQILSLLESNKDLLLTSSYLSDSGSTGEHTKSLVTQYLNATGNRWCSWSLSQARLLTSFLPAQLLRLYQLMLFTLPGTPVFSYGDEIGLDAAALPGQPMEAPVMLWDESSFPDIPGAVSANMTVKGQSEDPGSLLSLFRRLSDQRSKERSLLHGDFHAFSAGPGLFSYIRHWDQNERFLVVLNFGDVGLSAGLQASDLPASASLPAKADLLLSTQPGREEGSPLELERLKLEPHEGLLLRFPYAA
Procedure: Substrate transport inhibition studies were conducted with LLC-PK1 cells inducibly expressing either hLAT1 or hLAT2. Cells were plated in growth media with 1 μg/mL doxycycline at 30,000 cells/well in 96-well plates. Sixteen hours after plating, cells were treated with butyrate at a final concentration of 5 mM. The following day, cells were washed with PBS and incubated in the presence or absence of various concentrations of QBS10072S with 30,000 cpm/well of either [3H]-gabapentin (LAT1) or [3H]-leucine (LAT2) in PBS for 15 minutes at room temperature. The non-specific cell-bound activity was determined by the addition of 5 mM unlabeled gabapentin (LAT1) or leucine (LAT2). Unincorporated radioactivity was removed, and cells were washed three times with ice-cold PBS. Cells were lysed by adding scintillation fluid to each well, and cell-associated radioactivity was determined via scintillation counting using a multichannel 96-well plate reader (MicroBeta Trilux, Perkin Elmer, Waltham, MA). Data were expressed as the percent of specific radioactivity uptake in wells with no compound added. LC50s were determined by non-linear curve-fitting using GraphPad Prism (San Diego, CA).

## Cc1ccc(N(CCCl)CCCl)cc1C[C@H](N)CC(=O)O [QBS10072S, (+)-(3S)-amino-4-[5-[bis(2-chloroethyl)amino]-2-methyl-phenyl]butanoic acid]
[1]; 1 hour post-dose
  level in brain tumor as % of blood levels: 89%
[1]; 8 hours post-dose
  level in brain tumor as % of blood levels: 73%
[1]; 24 hours post-dose
  level in brain tumor as % of blood levels: 37%
[2]
  IC50: 1100 µM
